Drawing on ChEMBL document CHEMBL3045010, “Radical scavenging capacities of some thiazolylthiazolidine-2,4-dione derivatives” (Med Chem Res, 2009), this text covers Activity for 13 compounds.

What all share (assay type): functional
The subject of assay [1] is Radical scavenging activity. Kind of assay: Antioxidant activity against assessed as DPPH radical scavenging activity at 10 '-3 M after 30 min by spectrophotometry relative to control.
Assay [2] can be described thus: Antioxidant activity against assessed as superoxide scavenging activity measuring reduction of cytochrome C at 10 '-3 M by spectrophotometry relative to control. The arrangement: scale not given: the % may be the effect or the level left.
Assay [3] relates to Radical scavenging activity. Kind of assay: Antioxidant activity against assessed as DPPH radical scavenging activity at 10 '-4 M after 30 min by spectrophotometry relative to control.
Assay [4] is described as follows: Antioxidant activity against assessed as superoxide scavenging activity measuring reduction of cytochrome C at 10 '-4 M by spectrophotometry relative to control. The arrangement: scale not given: the % may be the effect or the level left.
For assay [5], the system named is Radical scavenging activity. Kind of assay: Antioxidant activity against assessed as DPPH radical scavenging activity at 1.25 x 10 '-4 M after 30 min by spectrophotometry relative to control.
The subject of assay [6] is Radical scavenging activity. The assay can be described thus: Antioxidant activity against assessed as DPPH radical scavenging activity at 2 x 10 '-4 M after 30 min by spectrophotometry relative to control.

`O=C1S/C(=C\c2sc(SCc3ccccc3)nc2Cl)C(=O)N1Cc1ccc(F)cc1`: the Activity in assay [1] is 21%; in assay [2], 52%; in assay [3], 67%; in assay [4], 98%.

As for `O=C1S/C(=C\c2sc(SCc3ccccc3)nc2Cl)C(=O)N1Cc1ccccc1`, the Activity in assay [1] was determined as 26%; in assay [2] it was 50%; in assay [3] it was 77%; in assay [4], 86%.

On to `O=C1S/C(=C\c2sc(Cl)nc2Cl)C(=O)N1Cc1ccc(Br)cc1`, for which the Activity in assay [1] was determined as 9%; in assay [2], 124%; in assay [3], 28%; in assay [4] it was 127%.

Turning to `O=C1S/C(=C\c2sc(SCc3ccccc3)nc2Cl)C(=O)N1Cc1ccc(Br)cc1`, the Activity was 19% in assay [1], 35% in assay [2], 74% in assay [3] and 88% in assay [4].

In the case of `O=C1S/C(=C\c2sc(Cl)nc2Cl)C(=O)N1Cc1ccc(Cl)cc1`, the Activity was 57% in assay [1], 9% in assay [2], 73% in assay [3] and 32% in assay [4].

In the case of `Cc1cc(C(C)(C)C)c(O)c(C(C)(C)C)c1`, the Activity in assay [1] was 17%; in assay [5] it was 52%; in assay [6], 37%.

Consider `O=C1S/C(=C\c2sc(Cl)nc2Cl)C(=O)N1Cc1ccc(F)cc1`, for which the Activity amounted to 11% in assay [1], 73% in assay [2], 28% in assay [3] and 129% in assay [4].

Turning to `O=C1S/C(=C\c2sc(SCc3ccccc3)nc2Cl)C(=O)N1Cc1ccc(Cl)cc1`, the Activity in assay [1] worked out at 20%; in assay [2] it was 31%; in assay [3] it was 72%; in assay [4] it was 91%.

In the case of `O=C1S/C(=C\c2sc(SCc3ccccc3)nc2Cl)C(=O)N1Cc1ccc([N+](=O)[O-])cc1`, the Activity in assay [1] is 14%; in assay [2] it was 11%; in assay [3], 43%; in assay [4] it was 96%.

Consider `O=C1S/C(=C\c2sc(Cl)nc2Cl)C(=O)N1Cc1ccccc1`, for which the Activity in assay [1] was found to be 12%; in assay [2] it was 154%; in assay [3], 47%; in assay [4] it was 352%.

As for `O=C1S/C(=C\c2sc(SCc3ccccc3)nc2Cl)C(=O)N1Cc1ccc(Cl)cc1Cl`, the Activity in assay [1] came to 20%; in assay [2], 16%; in assay [3] it was 58%; in assay [4] it was 101%.

Take `O=C1S/C(=C\c2sc(Cl)nc2Cl)C(=O)N1Cc1ccc(Cl)cc1Cl`: the Activity was found to be 9% in assay [1], 99% in assay [2], 12% in assay [3] and 110% in assay [4].

Take `O=C1S/C(=C\c2sc(Cl)nc2Cl)C(=O)N1Cc1ccc([N+](=O)[O-])cc1`: the Activity in assay [1] was 9%; in assay [2] it was 339%; in assay [3], 52%; in assay [4], 114%.
